ChEMBL document CHEMBL1201862, “PubChem BioAssay data set” (2004)
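Method: 48-hour compound exposure of cells in 96-well plates, five concentrations, linear interpolation of endpoints. The concentration for 50% growth inhibition is given as GI50.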 Active and inactive are the calls of the source. No stated cut-off is given here; in the data, active = GI50 up to about 1.1 µM and inactive = higher.

Experiments:
Experiment in all cases: NCI anticancer screen, dose series, 48 h
SNB-78 = tested on: SNB-78
DLD-1 = tested on: DLD-1
KM-20L2 = tested on: KM-20L2
LXFL 529 = tested on: LXFL 529
DMS-114 = tested on: DMS-114
DMS-273 = tested on: DMS-273
XF498 = tested on: XF498
RXF 631 = tested on: RXF 631
HOP-18 = tested on: HOP-18

Compound | GI50 (SNB-78) | GI50 (DLD-1) | GI50 (KM-20L2) | GI50 (LXFL 529) | GI50 (DMS-114) | GI50 (DMS-273) | GI50 (XF498) | GI50 (RXF 631) | GI50 (HOP-18)
O=C(O)c1cc(=O)c2cc(C(=O)c3cccs3)c(Cl)c(Cl)c2o1 | > 100 µM (inactive) | > 100 µM (inactive) | > 100 µM (inactive) | > 100 µM (inactive) |  |  |  |  | 
O=C(c1ccc(Cl)cc1Cl)N(/N=C/C=C/c1ccccc1)c1nnc(-c2ccccc2)c(-c2ccccc2)n1 | > 100 µM (inactive) | > 100 µM (inactive) | > 100 µM (inactive) |  | > 100 µM (inactive) | > 100 µM (inactive) | > 100 µM (inactive) | > 100 µM (inactive) | 
COc1cc2c(c(OC)c1OC)-c1cccc(=O)cc1C(NC(C)=O)CC2 (configuration not stated) | 0.0859 µM (active) |  | 0.12 µM (active) | 0.125 µM (active) | 0.0685 µM (active) | 0.0509 µM (active) | 0.117 µM (active) |  | > 100 µM (inactive)
CC(=O)C1Cn2c(nc3ccccc32)C[Se]1 (configuration not stated) | 4.47 µM (inactive) | 3.63 µM (inactive) | 12.9 µM (inactive) | 3.2 µM (inactive) | 2.12 µM (inactive) |  |  | 2.14 µM (inactive) | 2.61 µM (inactive)
COc1ccc(OC)c2c1C(=O)C1CC1(Br)C2=O (configuration not stated) |  | > 100 µM (inactive) | > 100 µM (inactive) | > 100 µM (inactive) | > 100 µM (inactive) | > 100 µM (inactive) | > 100 µM (inactive) |  | 
COCCN1C2=CCCCC2=Nc2c(N)nc(N)nc21 | > 100 µM (inactive) | > 100 µM (inactive) | > 100 µM (inactive) | > 100 µM (inactive) | > 100 µM (inactive) | > 100 µM (inactive) | > 100 µM (inactive) | > 100 µM (inactive) | > 100 µM (inactive)
COc1cc(OC(=O)c2c(O)cc(O)c(O)c2C)cc(C)c1C(=O)Oc1cc(C)c(C(=O)O)c(O)c1 | > 100 µM (inactive) | > 100 µM (inactive) | > 100 µM (inactive) | > 100 µM (inactive) | > 100 µM (inactive) | > 100 µM (inactive) | > 100 µM (inactive) | > 100 µM (inactive) | > 100 µM (inactive)
Cn1nc(-c2ccccc2)c(C(=O)/C=C/c2ccc(F)cc2)c(N2CCCC2)c1=O |  | 11.2 µM (inactive) | 13.1 µM (inactive) | 12.8 µM (inactive) | 11.5 µM (inactive) | 14.8 µM (inactive) | 20.8 µM (inactive) |  | 14.6 µM (inactive)
COc1ccc(CCc2cc(OC)c(O)c(OC)c2)cc1 | 30.9 µM (inactive) | 60.1 µM (inactive) | > 100 µM (inactive) | 54.8 µM (inactive) | 29 µM (inactive) | 46.5 µM (inactive) | 79.4 µM (inactive) | 88.1 µM (inactive) | 
c1cc2[se][se]c3c4cccc5[se][se]c(c(c1)c23)c54 | > 100 µM (inactive) | > 100 µM (inactive) | > 100 µM (inactive) | > 100 µM (inactive) | > 100 µM (inactive) | > 100 µM (inactive) | > 100 µM (inactive) |  | 0.331 µM (active)
COC(=O)C1Cc2c([nH]c3ccccc23)C(c2ccccc2O)N1Cc1ccccc1 (configuration not stated) | 34 µM (inactive) | 74 µM (inactive) | > 46.5 µM (inactive) | 31.5 µM (inactive) | 19.8 µM (inactive) | 23.8 µM (inactive) |  | 21.2 µM (inactive) | 31.6 µM (inactive)
CC(C)CC(N)C(=O)OCN1C(=O)C2C3C=CC(C2C1=O)C1C2C(=O)N(COC(=O)C(N)CC(C)C)C(=O)C2C31 (configuration not stated) | > 100 µM (inactive) | > 86.7 µM (inactive) | > 100 µM (inactive) | > 100 µM (inactive) | > 62.1 µM (inactive) | 97.3 µM (inactive) |  | > 100 µM (inactive) | > 100 µM (inactive)
CC(C)=CCC(OC(=O)C=C(C)C)c1cc(O)c2c(c1O)C(=O)C=CC2=O (configuration not stated) | 2.07 µM (inactive) | 0.279 µM (active) | 1.82 µM (inactive) |  | 1.05 µM (active) | 1.98 µM (inactive) | 0.809 µM (active) |  | 3.52 µM (inactive)
Clc1ccccc1/C=C/c1cscn1 | > 100 µM (inactive) | > 100 µM (inactive) |  | > 100 µM (inactive) | > 100 µM (inactive) |  | > 100 µM (inactive) |  | 
COc1ccc(OC)c(NC(=O)C(=O)NNC(=O)c2sc(NNC(C)=O)nc2C)c1 | 27 µM (inactive) |  | 33.4 µM (inactive) | 29.4 µM (inactive) |  |  | 25.6 µM (inactive) |  | 
CCOC(=O)c1cc2c(OCc3ccccc3)c(OC)cc3c2c(n1)N(c1ccc(OC)cc1)C(C)C3 (configuration not stated) |  | > 50 µM (inactive) | 2.47 µM (inactive) | 39.4 µM (inactive) | 38.3 µM (inactive) | > 50 µM (inactive) | > 50 µM (inactive) |  | > 50 µM (inactive)
O=C1[C@@H]2C(c3c(Cl)cccc3Cl)=NO[C@@H]2C(=O)N1c1ccc(Cc2ccc(N3C(=O)[C@H]4C(c5c(Cl)cccc5Cl)=NO[C@H]4C3=O)cc2)cc1 | > 100 µM (inactive) | > 100 µM (inactive) | > 100 µM (inactive) | > 100 µM (inactive) | > 100 µM (inactive) | > 100 µM (inactive) | > 100 µM (inactive) |  | > 100 µM (inactive)
COc1cccc2c1C(=O)c1c(O)c3c(c(O)c1C2=O)C[C@@](O)(C(C)=O)C[C@@H]3OC1CC(O)C(O)C(C)O1 (some centres not stated) | 4.42 µM (inactive) | 1.46 µM (inactive) | 2.69 µM (inactive) | 2.79 µM (inactive) |  | 0.253 µM (active) |  |  | 1.39 µM (inactive)
CSc1ccc(/C=C2/C[N+](C)(C)C/C(=C/c3ccc(SC)cc3)C2=O)cc1 | 62.2 µM (inactive) | 7.78 µM (inactive) |  |  | 6.44 µM (inactive) |  | 15.7 µM (inactive) | 35.2 µM (inactive) | 31.8 µM (inactive)
NC(=O)c1ccc([N+](=O)[O-])cc1 | > 100 µM (inactive) | > 100 µM (inactive) | > 100 µM (inactive) | > 100 µM (inactive) | > 100 µM (inactive) | > 100 µM (inactive) | > 100 µM (inactive) | > 100 µM (inactive) | 
C=C1C(=O)OC2/C=C(\C)C3OC3/C=C(/C(=O)OC)C(O)C(OC(=O)C3(C)OC3C)C12 (configuration not stated) | 1.79 µM (inactive) | 1.03 µM (active) |  | 1.36 µM (inactive) | 0.435 µM (active) | 1.59 µM (inactive) |  |  | 
Cc1cc(O)c2c(c1)C[C@@H](O)C1=C2C(=O)c2c(O)ccc(OC3CC(O)C(OC4CC(OC5CCC(OC6CC(O)C(OC7CC(OC8CCC(O)C(C)O8)C(O)C(C)O7)C(C)O6)C(C)O5)C(O)C(C)O4)C(C)O3)c2C1=O (some centres not stated) | 0.0245 µM (active) | 0.0173 µM (active) | 0.0461 µM (active) | 0.0155 µM (active) | 0.0144 µM (active) | 0.0209 µM (active) | 0.0247 µM (active) |  | 0.0403 µM (active)
CC#CC1C2CCCC1(CSc1ccccc1)NC(=O)O2 (configuration not stated) | > 100 µM (inactive) | > 100 µM (inactive) | > 100 µM (inactive) | > 100 µM (inactive) | > 100 µM (inactive) | > 100 µM (inactive) | > 100 µM (inactive) | > 100 µM (inactive) | > 100 µM (inactive)
COc1cccc(N2C(=O)[C@H]3CC(C)c4c([nH]c5ccccc45)[C@H]3C2=O)c1 (some centres not stated) | 33.3 µM (inactive) | 80.5 µM (inactive) | > 100 µM (inactive) | 42.8 µM (inactive) |  | 79.4 µM (inactive) | 55.7 µM (inactive) |  | 
COc1ccccc1NC(=O)C1=C(C)NC(C)=C(C(=O)Nc2ccccc2OC)C1/C=C/c1ccccc1 | 54.8 µM (inactive) | > 100 µM (inactive) | > 100 µM (inactive) | 84.9 µM (inactive) | 61.7 µM (inactive) | > 100 µM (inactive) |  |  | > 100 µM (inactive)
Cc1ccccc1-n1c(C)nc2c1C(=O)c1ccccc1C2=O | 58.2 µM (inactive) |  |  |  | 31.1 µM (inactive) | 42.5 µM (inactive) |  |  | 
